Blank lines part the entries; values can stand above or below the compound they belong to.
Assays:
[1] = system: apoptotic cells in tumor, murine melanoma-derived B16-F10 cells; assay: Targeting of DC in vivo to apoptotic cells in B16-F10 murine melanoma tumor, fluorescent microscopy; design: species or system mice; details: 2 mg/mouse i.v., 2 h; for uptake by the apoptotic or the viable tumor cells: data not shown
Procedure: Tumors, and especially aggressive malignancies such as melanoma are characterized, in addition to the abnormal tissue proliferation, also by marked apoptosis of tumor cells. The performance of DC in selective targeting of these apoptotic cells within the tumor was therefore examined. Mice (c57/black; 8 weeks old male mice) were injected subcutaneously bilaterally, in the flank, with murine melanoma-derived B16-F10 cells (ATCC CRL-6475; 10^5 cells/mice in a volume of 100 μl). Prior to injection, the cell line was maintained in culture in Dulbecco's modified Eagle's medium (DMEM), supplemented with 4 mM of L-glutamine; 100 units/ml of penicillin; 100 μg/ml of streptomycin; 12.5 units/ml of nystatin and 10% of fetal calf serum (FCS). Tumors were allowed to grow for 14 days, by which they reached a diameter of 5-7 mm.
Dansyl-cysteine (DC), or the control compounds dansyl-glycine or dansyl-serine (2 mg/mouse each in NaPpi buffer, pH. 7.40) was injected intravenously. Two hours later, mice were scarified and the tumors, as well as other organs were taken, and immediately frozen in liquid nitrogen. Frozen sections were then prepared from each of the organs. Uptake of the examined compounds by the tumors or other organs was assessed by fluorescent microscopy.

[2] = system: brain cells undergoing apoptosis following middle cerebral artery (MCA) cauterization; assay: Selective binding of NST729 to cells undergoing cell death following MCA occlusion, fluorescent microscopy of brain sections; type: in vivo; details: Balb/C mice
Procedure: Studies were carried out in adult male Balb/C mice, weighing 20-25 g. Ischemia was induced by unilateral cauterization of the middle cerebral artery. Briefly, mice were anesthetized, and ischemia was induced through a subtemporal approach. The craniotomy was performed at the level where the MCA crossed the lateral olfactory tract. […] All visible branches also were occluded to prevent blood supply by passing. The incision sites were clipped closed and the animal was injected with analgesics and allowed to recover.

[3] = system: amyloid plaques; assay: Detection of amyloid plaques in APP Swedish TG2576 mice, fluorescent microscopy of brain sections; type: in vivo; details: i.v., 2 h
Procedure: Studies were carried out in one and a half year old APP Swedish TG2576 mice, which have a mutation of APP. BDA (which lacks a free thiol residue) and NST729 were injected i.v., two hours later, mice were anesthetized and brains were removed into liquid nitrogen for further analysis. Frozen section of 10 μm thickness each were prepared, and visualized by fluorescent microscopy.

[4] = system: degenerating neuronal cells; assay: Selective binding of NST729 in vivo to degenerating neuronal cells in a mouse model of motor neuron disease (SOD G93A); details: SOD G93A transgenic mice, 1.4 mg/animal i.v., 2 h
Procedure: Studies were carried out in transgenic mice for SOD with point mutation of G93A. NST729 (1.4 mg / animal in 200 μl 50% Cremophor/ trizma-base 0.1M was injected i.v. After two hours, mice were anesthetized and brain +spinal cord were removed into liquid nitrogen for further analysis. Frozen sections of 10 μm thickness were prepared. The slices were visualized by fluorescent microscopy.

[5] = system: cells undergoing apoptosis, induced by cerebral ischemia due to middle cerebral artery (MCA) occlusion; assay: Selective targeting of NST739 to cells undergoing cell death following MCA occlusion, fluorescent microscopy of brain sections; type: in vivo; details: Balb/C mice
Procedure: An in vivo experiment was conducted in mice, in order to show the performance of NST739 in selective binding to cells undergoing apoptosis, induced by cerebral ischemia due to middle cerebral artery (MCA) occlusion.
Studies were carried out in adult male Balb/C mice, weighing 20-25 g. Cerebral ischemia was induced by unilateral cauterization of the middle cerebral artery. Briefly, mice were anesthetized, and ischemia was induced through a subtemporal approach. The craniotomy was performed at the level where the MCA crossed the lateral olfactory tract. […] All visible branches also where occluded to prevent blood supply by passing. The incision sites were clipped closed and the animal was injected with analgesics and allowed to recover. Twenty-two hours after the middle cerebral artery (MCA) cauterization, NST739 or the control compound BDA (1.4 mg/animal each) were injected i.v. At 24 h from the induction of the injury, and two hours after administration of NST739, mice were anesthetized, sacrificed, and brains were removed into liquid nitrogen for further analysis. […] Frozen sections were prepared. The slices were visualized by fluorescent microscopy.

Structure (SMILES): CN(C)c1cccc2c(S(=O)(=O)N[C@@H](CS)C(=O)O)cccc12 [DC, dansyl-cysteine]
- binding to tumor cells undergoing cell death ([1]; c57/black mice, B16-F10 tumors): Extensive binding
- staining of viable tumor cells ([1]; c57/black mice, B16-F10 tumors): remain unstained
- binding to normal, viable small intestine tissue ([1]; same animal): lack of binding

- intensity of binding to the plaques compared with BDA (fluorescence intensity) ([3]; APP Swedish TG2576 mice, versus control BDA): markedly higher
Structure (SMILES): CN(C)c1cccc2c(S(=O)(=O)NCCS)cccc12 [NST729, n-(2-mercaptoethyl)-dansylamide]
- binding to cells in the damaged area ([2]; 1.4 mg i.v. 22 h after MCA cauterization, brains removed 2 h later): extensive binding
- number of apoptotic events detected compared with BDA ([2]; MCA cauterization, i.v., 2 h, versus control BDA): significantly higher
- level of binding (fluorescence intensity) compared with BDA ([2]; MCA cauterization, i.v., 2 h, versus control BDA lacking the thiol group): markedly higher
- staining of surrounding brain cells ([3]; APP Swedish TG2576 mice): remained unstained
- visualization of amyloid plaques ([3]; one and a half year old APP Swedish TG2576 mice): strongly visualized
- uptake by degenerating neuronal cells and axons (motor nuclei of the pons) [4]: marked uptake
- uptake by other cells in the same region and cells in other brain regions [4]: did not manifest such uptake

Structure (SMILES): CN(C)c1cccc2c(S(=O)(=O)N(CCS)CCCF)cccc12 [NST739, N-(3-fluoropropyl)-N-(2-thioethyl)-dansylamide]
- binding to cells in the damaged area ([5]; 1.4 mg/animal i.v. 22 h after MCA cauterization, brains removed 2 h later): extensive binding
- staining of cells in other brain regions ([5]; MCA cauterization, 1.4 mg/animal i.v., 2 h): remained unstained
- level of binding (fluorescence) compared with BDA ([5]; MCA cauterization, 1.4 mg/animal i.v., 2 h, versus control BDA lacking the thiol group): significantly higher

Structure (SMILES): CN(C)c1cccc2c(S(=O)(=O)NCC(=O)O)cccc12 [dansyl-glycine, reference compound]
- uptake by the apoptotic or the viable tumor cells ([1]; B16-F10 tumors): did not manifest a significant uptake

Structure (SMILES): CN(C)c1cccc2c(S(=O)(=O)N[C@@H](CO)C(=O)O)cccc12 [dansyl-serine, reference compound]
- uptake by the apoptotic or the viable tumor cells ([1]; B16-F10 tumors): did not manifest a significant uptake

Reference: patent US8101666B2, “Methods and compounds for detection of medical disorders” (Aposense Ltd., priority 2004, dated 2012)
